Data: ChEMBL document CHEMBL4219051, “Cyclin-Dependent Kinase 8: A New Hope in Targeted Cancer Therapy?” (J Med Chem, 2018)
Blank lines part the entries; values can stand above or below the compound they belong to.

How the values were obtained:
SET-2 [1] = experiment: Antitumor activity against human SET2 cells xenografted in SCID Beige mouse assessed as tumor growth inhibition at 0.16 mg/kg, ip qd measured on day 33 relative to control; type: functional; conditions: SET-2, ip, 792 h, read-out: TGI
[2] = target: T1, Cyclin-dependent kinase 19 (Homo sapiens, UniProt Q9BWU1); experiment: Inhibition of CDK19 (unknown origin) in presence of [gamma33P]ATP by radiometric method
T1 sequence (Q9BWU1 whole entry): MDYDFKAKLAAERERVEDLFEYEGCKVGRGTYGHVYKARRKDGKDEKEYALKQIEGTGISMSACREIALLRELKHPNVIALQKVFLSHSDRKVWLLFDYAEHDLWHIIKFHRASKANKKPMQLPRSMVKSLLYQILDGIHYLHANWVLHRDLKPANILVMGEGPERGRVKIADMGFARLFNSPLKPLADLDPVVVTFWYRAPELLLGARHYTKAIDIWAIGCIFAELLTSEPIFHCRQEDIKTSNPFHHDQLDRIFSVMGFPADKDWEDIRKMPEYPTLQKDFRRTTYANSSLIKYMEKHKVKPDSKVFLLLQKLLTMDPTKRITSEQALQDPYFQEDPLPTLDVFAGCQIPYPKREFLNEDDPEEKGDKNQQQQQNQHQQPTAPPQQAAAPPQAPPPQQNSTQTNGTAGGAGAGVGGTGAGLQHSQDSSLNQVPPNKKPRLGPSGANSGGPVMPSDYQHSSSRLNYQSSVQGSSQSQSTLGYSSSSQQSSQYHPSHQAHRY

[3] = target: Rho-associated protein kinase 1 (Homo sapiens, UniProt Q13464); experiment: Inhibition of ROCK1 (unknown origin)
[4] = target: Rho-associated protein kinase 2 (Homo sapiens, UniProt O75116); experiment: Inhibition of ROCK2 (unknown origin)
[5] = Growth inhibition of human SKNO1 cells after 10 days by CellTiter-Glo assay; type: functional; conditions: SKNO-1, 240 h
RS4-11 = experiment: Growth inhibition of human RS4:11 cells after 10 days by CellTiter-Glo assay; type: functional; conditions: RS4-11, 240 h
SET-2 [6] = experiment: Growth inhibition of human SET2 cells after 10 days by CellTiter-Glo assay; type: functional; conditions: SET-2, 240 h
MOLM-14 = experiment: Growth inhibition of human MOLM14 cells after 10 days by CellTiter-Glo assay; type: functional; conditions: MOLM-14, 240 h
MV4-11 [7] = experiment: Growth inhibition of human MV4-11 cells after 10 days by CellTiter-Glo assay; type: functional; conditions: MV4-11, 240 h
[8] = Growth inhibition of human UKE1 cells after 10 days by CellTiter-Glo assay; type: functional; conditions: UKE1, 240 h
MEG-01 = experiment: Growth inhibition of human MEG01 cells after 10 days by CellTiter-Glo assay; type: functional; conditions: MEG-01, 240 h
TF-1 = experiment: Growth inhibition of human TF1 cells after 10 days by CellTiter-Glo assay; type: functional; conditions: TF-1, 240 h
HCT-116 [9] = experiment: Growth inhibition of human HCT116 cells after 7 days by CellTiter-Glo assay; type: functional; conditions: HCT-116, 168 h
CDK8/Cyclin C [10] = target: T2, CDK8/Cyclin C (Homo sapiens, UniProt P49336); experiment: Inhibition of CDK8/CCNC (unknown origin) using RBER-IRStide as substrate in presence of [gamma33P]ATP by radiometric method; type: protein-complex assay
T2 sequence (P49336 whole entry): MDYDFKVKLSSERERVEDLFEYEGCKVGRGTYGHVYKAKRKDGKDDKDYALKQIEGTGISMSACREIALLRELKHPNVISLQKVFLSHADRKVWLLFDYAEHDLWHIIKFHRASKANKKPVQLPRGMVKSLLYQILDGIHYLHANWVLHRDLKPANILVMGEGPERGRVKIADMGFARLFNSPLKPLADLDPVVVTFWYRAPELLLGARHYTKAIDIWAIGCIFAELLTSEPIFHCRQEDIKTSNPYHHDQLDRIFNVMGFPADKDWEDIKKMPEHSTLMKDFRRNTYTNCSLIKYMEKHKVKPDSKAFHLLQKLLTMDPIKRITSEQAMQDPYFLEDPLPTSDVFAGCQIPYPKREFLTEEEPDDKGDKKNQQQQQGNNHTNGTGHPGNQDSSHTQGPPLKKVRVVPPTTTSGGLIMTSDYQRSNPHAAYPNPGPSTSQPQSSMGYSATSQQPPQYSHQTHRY
T2 sequence (P24863 whole entry, further chain): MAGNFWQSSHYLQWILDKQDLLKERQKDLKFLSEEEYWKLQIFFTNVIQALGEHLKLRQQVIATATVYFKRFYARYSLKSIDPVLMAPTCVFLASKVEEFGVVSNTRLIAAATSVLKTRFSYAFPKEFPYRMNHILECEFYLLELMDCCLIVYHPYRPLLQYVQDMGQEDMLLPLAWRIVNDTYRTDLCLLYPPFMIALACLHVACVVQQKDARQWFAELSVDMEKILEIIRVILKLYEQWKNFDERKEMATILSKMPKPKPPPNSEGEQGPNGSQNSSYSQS

[11] = target: Cyclin-dependent kinase 8 (Homo sapiens, UniProt P49336); experiment: Inhibition of CDK8 (unknown origin)
Cyclin-dependent kinase 8, sequence (P49336 whole entry): as the sequence (P49336 whole entry) above

[12] = target: T1, Cyclin-dependent kinase 19; experiment: Inhibition of CDK19 (unknown origin)
[13] = target: Cyclin-dependent kinase 8/Cyclin-C (Mus musculus, UniProt Q8R3L8); experiment: Inhibition of CDK8/Cyclin-C in R848-stimulated mouse BMDC assessed as upregulation of IL-10 level; type: cell-based
Cyclin-dependent kinase 8/Cyclin-C, sequence (Q8R3L8 whole entry): as the sequence (P49336 whole entry) above, with Q82L, D366E, N372T, S394G, T396A counted along it
Cyclin-dependent kinase 8/Cyclin-C, sequence (Q62447 whole entry, further chain): as the sequence (P24863 whole entry, further chain) above, with A112T, M171V counted along it

CDK8/Cyclin C [14] = target: T2, CDK8/Cyclin C; experiment: Inhibition of CDK8/Cyclin-C (unknown origin) in presence of [gamma33P]ATP by radiometric method; type: protein-complex assay
HL-60 = experiment: Growth inhibition of human HL60 cells by alamar blue assay; type: functional
[15] = Growth inhibition of human SKNO1 cells by alamar blue assay; type: functional; conditions: SKNO-1
KG-1 = experiment: Growth inhibition of human KG1 cells by alamar blue assay; type: functional
[16] = Growth inhibition of human MOLM16 cells by alamar blue assay; type: functional
MV4-11 [17] = experiment: Growth inhibition of human MV4-11 cells by alamar blue assay; type: functional
OCI-AML2 = experiment: Growth inhibition of human OCI-AML2 cells by alamar blue assay; type: functional
OCI-AML-3 = experiment: Growth inhibition of human OCI-AML3 cells by alamar blue assay; type: functional
[18] = Growth inhibition of human MOLM6 cells by alamar blue assay; type: functional
[19] = target: Cyclin-C/Cyclin-dependent kinase 19 (Homo sapiens, UniProt Q9BWU1); experiment: Inhibition of CDK19/Cyclin-C (unknown origin) in presence of [gamma33P]ATP by radiometric method; type: protein-complex assay
Cyclin-C/Cyclin-dependent kinase 19, sequence (Q9BWU1 whole entry): as the sequence (Q9BWU1 whole entry) above
Cyclin-C/Cyclin-dependent kinase 19, sequence (P24863 whole entry, further chain): as the sequence (P24863 whole entry, further chain) above

[20] = target: Receptor-type tyrosine-protein kinase FLT3 (Homo sapiens) (UniProt P36888); experiment: Inhibition of FLT3 (unknown origin) at 1 uM relative to control
Receptor-type tyrosine-protein kinase FLT3 (Homo sapiens), sequence (P36888 whole entry): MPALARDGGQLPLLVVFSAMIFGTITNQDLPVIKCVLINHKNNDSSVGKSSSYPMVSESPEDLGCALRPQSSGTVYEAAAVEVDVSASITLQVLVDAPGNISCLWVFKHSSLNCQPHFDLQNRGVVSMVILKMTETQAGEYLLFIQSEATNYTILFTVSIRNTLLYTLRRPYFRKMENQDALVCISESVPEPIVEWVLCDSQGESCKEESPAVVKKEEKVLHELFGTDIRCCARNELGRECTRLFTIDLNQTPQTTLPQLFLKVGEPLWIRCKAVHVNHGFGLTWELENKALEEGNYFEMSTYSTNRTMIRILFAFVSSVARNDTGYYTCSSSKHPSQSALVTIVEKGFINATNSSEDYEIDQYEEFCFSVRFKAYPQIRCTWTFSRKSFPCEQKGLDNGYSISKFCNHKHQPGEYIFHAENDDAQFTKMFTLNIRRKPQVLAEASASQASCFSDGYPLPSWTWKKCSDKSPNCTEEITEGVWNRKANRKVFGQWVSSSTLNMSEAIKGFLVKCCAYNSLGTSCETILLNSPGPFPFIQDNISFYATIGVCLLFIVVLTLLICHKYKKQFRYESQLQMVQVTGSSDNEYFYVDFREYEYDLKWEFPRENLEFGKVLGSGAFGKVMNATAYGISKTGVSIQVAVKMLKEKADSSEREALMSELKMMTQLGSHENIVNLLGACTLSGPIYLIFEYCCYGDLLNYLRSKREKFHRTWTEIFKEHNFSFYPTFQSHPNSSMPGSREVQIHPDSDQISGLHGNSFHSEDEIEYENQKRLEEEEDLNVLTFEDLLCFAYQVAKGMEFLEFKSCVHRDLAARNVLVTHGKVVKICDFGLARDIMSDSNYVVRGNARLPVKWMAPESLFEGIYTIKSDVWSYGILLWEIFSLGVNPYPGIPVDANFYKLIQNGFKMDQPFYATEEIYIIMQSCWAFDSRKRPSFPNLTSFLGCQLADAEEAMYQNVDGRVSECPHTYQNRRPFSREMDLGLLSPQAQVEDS

HCT-116 [21] = experiment: cells; conditions: Homo sapiens
[22] = target: Mitogen-activated protein kinase kinase kinase kinase 2 (Homo sapiens) (UniProt Q12851); experiment: Inhibition of MAP4K2 (unknown origin) at 2 uM relative to control
Mitogen-activated protein kinase kinase kinase kinase 2 (Homo sapiens), sequence (Q12851 whole entry): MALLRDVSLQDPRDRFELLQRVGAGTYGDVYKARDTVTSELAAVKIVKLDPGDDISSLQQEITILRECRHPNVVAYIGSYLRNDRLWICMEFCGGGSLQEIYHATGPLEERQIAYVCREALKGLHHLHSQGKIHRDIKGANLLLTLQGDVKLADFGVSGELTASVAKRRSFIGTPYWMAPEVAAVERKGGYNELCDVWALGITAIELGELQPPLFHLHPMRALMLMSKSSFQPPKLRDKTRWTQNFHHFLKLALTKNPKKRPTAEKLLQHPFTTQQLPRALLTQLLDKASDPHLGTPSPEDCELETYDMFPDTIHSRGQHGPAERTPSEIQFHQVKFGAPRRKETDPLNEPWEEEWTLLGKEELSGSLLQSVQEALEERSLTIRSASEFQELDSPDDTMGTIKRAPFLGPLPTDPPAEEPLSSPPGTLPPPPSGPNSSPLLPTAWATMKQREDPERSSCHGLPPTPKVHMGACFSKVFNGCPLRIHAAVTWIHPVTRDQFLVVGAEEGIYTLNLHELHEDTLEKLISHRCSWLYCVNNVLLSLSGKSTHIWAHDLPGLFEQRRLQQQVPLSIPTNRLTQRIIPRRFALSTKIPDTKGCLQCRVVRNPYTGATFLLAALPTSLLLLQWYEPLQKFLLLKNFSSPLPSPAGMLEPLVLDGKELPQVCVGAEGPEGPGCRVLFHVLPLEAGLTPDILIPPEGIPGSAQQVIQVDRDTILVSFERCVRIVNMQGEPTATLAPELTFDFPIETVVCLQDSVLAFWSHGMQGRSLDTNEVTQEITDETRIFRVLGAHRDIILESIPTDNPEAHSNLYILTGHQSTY

[23] = target: Mitogen-activated protein kinase kinase kinase 19 (Homo sapiens) (UniProt Q56UN5); experiment: Inhibition of YSK4 (unknown origin) at 2 uM relative to control
Mitogen-activated protein kinase kinase kinase 19 (Homo sapiens), sequence (Q56UN5 whole entry): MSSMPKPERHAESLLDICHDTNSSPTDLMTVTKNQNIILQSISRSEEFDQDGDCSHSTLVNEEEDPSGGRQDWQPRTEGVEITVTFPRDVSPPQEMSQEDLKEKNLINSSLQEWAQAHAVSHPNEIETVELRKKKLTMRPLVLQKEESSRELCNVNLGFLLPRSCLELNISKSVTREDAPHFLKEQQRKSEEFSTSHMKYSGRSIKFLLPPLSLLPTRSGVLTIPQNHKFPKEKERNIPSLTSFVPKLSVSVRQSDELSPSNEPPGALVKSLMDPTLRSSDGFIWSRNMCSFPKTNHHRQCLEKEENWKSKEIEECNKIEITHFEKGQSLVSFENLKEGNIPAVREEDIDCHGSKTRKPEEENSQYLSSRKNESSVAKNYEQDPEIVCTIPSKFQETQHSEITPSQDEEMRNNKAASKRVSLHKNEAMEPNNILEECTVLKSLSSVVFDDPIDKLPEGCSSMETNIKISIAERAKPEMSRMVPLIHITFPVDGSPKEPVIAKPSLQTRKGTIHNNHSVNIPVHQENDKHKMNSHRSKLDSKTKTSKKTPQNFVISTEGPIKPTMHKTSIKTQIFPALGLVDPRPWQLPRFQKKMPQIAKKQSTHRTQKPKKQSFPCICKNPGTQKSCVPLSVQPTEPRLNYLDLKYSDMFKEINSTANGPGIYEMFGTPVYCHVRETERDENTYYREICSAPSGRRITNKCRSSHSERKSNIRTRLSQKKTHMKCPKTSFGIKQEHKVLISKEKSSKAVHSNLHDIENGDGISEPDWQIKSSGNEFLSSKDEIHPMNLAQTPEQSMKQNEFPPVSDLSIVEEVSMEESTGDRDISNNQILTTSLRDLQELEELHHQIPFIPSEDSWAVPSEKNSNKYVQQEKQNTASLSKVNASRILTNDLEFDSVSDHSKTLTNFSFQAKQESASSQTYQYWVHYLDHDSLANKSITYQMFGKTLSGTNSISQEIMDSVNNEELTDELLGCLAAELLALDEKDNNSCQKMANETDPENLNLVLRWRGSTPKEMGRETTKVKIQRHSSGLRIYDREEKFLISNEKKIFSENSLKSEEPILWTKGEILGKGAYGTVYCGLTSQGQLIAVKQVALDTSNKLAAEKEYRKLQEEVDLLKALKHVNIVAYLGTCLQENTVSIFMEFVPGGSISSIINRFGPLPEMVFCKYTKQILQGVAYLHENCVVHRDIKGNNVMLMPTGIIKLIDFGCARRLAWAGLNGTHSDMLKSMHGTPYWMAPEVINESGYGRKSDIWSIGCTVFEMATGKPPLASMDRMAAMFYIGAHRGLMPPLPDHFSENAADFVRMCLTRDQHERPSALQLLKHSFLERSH

Structure (SMILES): CN(C)[C@H]1C[C@@]23CC[C@@]4(O2)C(=CC[C@]2(C)[C@@H](c5ccc6ccncc6c5)CC[C@H]24)C=C3[C@@H](O)[C@@H]1O
inhibition in vivo at 0.16 mg/kg (SET-2 [1]): 70%
IC50 [2]: 0.01 µM
IC50 [3]: 0.25 µM
IC50 [4]: 0.22 µM
GI50 [5]: 0.001 µM
GI50 (RS4-11): 0.003 µM
GI50 (SET-2 [6]): 0.004 µM
GI50 (MOLM-14): 0.005 µM
GI50 (MV4-11 [7]): 0.006 µM
GI50 [8]: 0.007 µM
GI50 (MEG-01): 0.009 µM
GI50 (TF-1): 0.36 µM
GI50 (HCT-116 [9]): > 1 µM

Structure (SMILES): N#Cc1ccc2ncnc(NCCc3ccccc3)c2c1
IC50 (CDK8/Cyclin C [10]): 0.28 µM

Structure (SMILES): Cc1c(Br)c(Br)c2c3c1nc(N1CCNCC1)n3CCC2 [SEL-120 FREE BASE]
IC50 (CDK8/Cyclin C [14]): 0.004 µM
GI50 (HL-60): < 1 µM
GI50 [15]: < 1 µM
GI50 (KG-1): < 1 µM
GI50 [16]: < 1 µM
GI50 (MV4-11 [17]): < 1 µM
GI50 (OCI-AML2): < 1 µM
GI50 (OCI-AML-3): < 1 µM
GI50 [18]: < 1 µM
IC50 [19]: 0.01 µM

Structure (SMILES): CN1CCN(C(=O)c2ccc3cc(CCNc4ncnc5ccc(C#N)cc45)ccc3c2)CC1
inhibition [22]: 69%
inhibition [23]: 59%

The next lines start with the values.

IC50 [11]: 0.5 µM
IC50 [12]: 30 µM
EC50 [13]: 1.4 µM
Structure (SMILES): CC1CCc2nc(N)c(C#N)c(-c3cccnc3)c2C1 (stereo unspecified)

inhibition [20]: 74%
IC50 (HCT-116 [21]): > 10 µM
Structure (SMILES): CCN1CCN(Cc2ccc(NC(=O)N[C@@H]3CCN(c4ccnc(NC)n4)C3)cc2C(F)(F)F)CC1
